The record followed here is ChEMBL document CHEMBL5096202, “Carbon-silicon switch led to the discovery of novel synthetic cannabinoids with therapeutic effects in a mouse model of multiple sclerosis” (Eur J Med Chem, 2021).

For data set [1], the target named is T1, Cannabinoid receptor 2 (Homo sapiens, UniProt P34972). Briefly: Agonist activity at recombinant human CB2 receptor expressed in CHO cells assessed as inhibition of forskolin-induced cAMP accumulation by measuring maximum efficacy preincubated for 15 mins followed by forskolin stimulation and measured after 15 mins by HTRF assay relative to control. Conditions: filed as agonist, time 30.0 min. Format: functional, cell-based.
T1 sequence (P34972 whole entry): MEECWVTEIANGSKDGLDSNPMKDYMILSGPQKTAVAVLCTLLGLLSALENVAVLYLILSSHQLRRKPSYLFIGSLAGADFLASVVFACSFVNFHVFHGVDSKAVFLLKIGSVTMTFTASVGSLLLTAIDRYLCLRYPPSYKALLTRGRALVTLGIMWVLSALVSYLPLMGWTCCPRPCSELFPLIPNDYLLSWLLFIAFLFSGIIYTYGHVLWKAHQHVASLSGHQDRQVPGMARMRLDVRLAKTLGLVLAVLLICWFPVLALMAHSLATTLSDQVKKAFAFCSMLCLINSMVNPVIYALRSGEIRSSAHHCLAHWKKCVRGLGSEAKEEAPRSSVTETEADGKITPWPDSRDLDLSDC

The target of data set [2] is T2, Cannabinoid receptor 1 (Homo sapiens, UniProt P21554). Put plainly: Displacement of [3H]-CP55940 from recombinant human CB1 receptor expressed in CHO cells assessed as inhibition constant incubated for 120 mins by radioligand binding assay. It counts as cell-based.
T2 sequence (P21554 whole entry): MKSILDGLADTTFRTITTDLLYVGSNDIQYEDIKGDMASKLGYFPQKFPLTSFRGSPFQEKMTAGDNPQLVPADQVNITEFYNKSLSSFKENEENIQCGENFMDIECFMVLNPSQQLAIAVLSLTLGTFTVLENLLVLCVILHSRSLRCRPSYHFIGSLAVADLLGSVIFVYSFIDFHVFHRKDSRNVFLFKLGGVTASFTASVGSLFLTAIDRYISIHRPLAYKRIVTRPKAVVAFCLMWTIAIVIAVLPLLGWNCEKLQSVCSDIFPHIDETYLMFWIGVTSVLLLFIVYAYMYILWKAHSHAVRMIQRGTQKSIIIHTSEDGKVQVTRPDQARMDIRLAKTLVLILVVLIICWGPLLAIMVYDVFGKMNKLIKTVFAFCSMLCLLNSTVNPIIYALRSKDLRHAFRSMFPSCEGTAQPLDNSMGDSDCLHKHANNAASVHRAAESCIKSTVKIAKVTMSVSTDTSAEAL
In data set [3] the target is T1, Cannabinoid receptor 2. Put plainly: Agonist activity at recombinant human CB2 receptor expressed in CHO cells assessed as inhibition of forskolin-induced cAMP accumulation preincubated for 15 mins followed by forskolin stimulation and measured after 15 mins by HTRF assay. Format: functional, cell-based.
Data set [4] concerns the target T1, Cannabinoid receptor 2. Put plainly: Displacement of [3H]-CP55940 from recombinant human CB2 receptor expressed in CHO cells assessed as inhibition constant incubated for 120 mins by radioligand binding assay. Format: cell-based.
Data set [5] concerns the target T2, Cannabinoid receptor 1. Put plainly: Agonist activity at recombinant human CB1 receptor expressed in CHO cells assessed as inhibition of forskolin-induced cAMP accumulation preincubated for 15 mins followed by forskolin stimulation and measured after 15 mins by HTRF assay. Format: functional, cell-based.
In data set [6] the target is T2, Cannabinoid receptor 1. Put plainly: Agonist activity at recombinant human CB1 receptor expressed in CHO cells assessed as inhibition of forskolin-induced cAMP accumulation by measuring maximum efficacy preincubated for 15 mins followed by forskolin stimulation and measured after 15 mins by HTRF assay relative to control. It counts as functional, cell-based. Conditions: filed as agonist, time 30.0 min.

Data set [7] is described as follows: Metabolic stability in mouse liver microsomes assessed as half life. Format: ADME, Microsome.
The nature of data set [8]: Metabolic stability in human liver microsomes assessed as half life. It counts as ADME, Microsome.
Data set [9] is described as follows: Metabolic stability in rat liver microsomes assessed as half life. Format: ADME, Microsome.
A short description of data set [10]: Metabolic stability in rat liver microsomes assessed as intrinsic clearance. It counts as ADME, Microsome. Conditions: read-out: CLH.
The nature of data set [11]: Metabolic stability in mouse liver microsomes assessed as intrinsic clearance. It counts as ADME, Microsome. Conditions: read-out: CLH.
The nature of data set [12]: Metabolic stability in human liver microsomes assessed as intrinsic clearance. Conditions: read-out: CLH. Format: ADME, Microsome.

Molecules are shown by their SMILES.

For the compound `C=C(C)[C@@H]1CCC(C)=C[C@H]1c1c(O)cc([Si](C)(C)CCCC)cc1O`, the Emax on Cannabinoid receptor 2 [1] came out at 82.7%; on Cannabinoid receptor 1 [6], 94.6%. In addition, the inhibition constant (Ki) on Cannabinoid receptor 1 [2] stood at 15 nM; at Cannabinoid receptor 2 [4], 7.25 nM. Further, the EC50 turned out to be 190 nM at Cannabinoid receptor 2 [3] and 403 nM at Cannabinoid receptor 1 [5].

In the case of `CCCC[Si](C)(C)c1cc(O)c(C2CCCCCC2)c(OC)c1`, at Cannabinoid receptor 2 [1], the Emax was 93.3%. In addition, on Cannabinoid receptor 2 [3], the EC50 turned out to be 475 nM. Further, on Cannabinoid receptor 2 [4], the Ki is 616 nM.

With `CCCCCC[Si](C)(C)c1cc(O)c2c(c1)OC(C)(C)c1ccc(CO)cc1-2`, the figures for the Emax at Cannabinoid receptor 2 [1] and on Cannabinoid receptor 1 [6] were 92.7% and 93%, respectively. The Ki stood at 0.35 nM on Cannabinoid receptor 1 [2] and 1.25 nM at Cannabinoid receptor 2 [4]. For the same compound, the EC50 at Cannabinoid receptor 2 [3] worked out at 27400 nM; on Cannabinoid receptor 1 [5], 59.1 nM.

`CCCCCC[Si](C)(C)c1cc(O)c(C2CCCCCC2)c(OC)c1`: the Emax at Cannabinoid receptor 2 [1] was found to be 98.7%; on Cannabinoid receptor 1 [6], 67.8%. Further, the Ki at Cannabinoid receptor 1 [2] is 182 nM; at Cannabinoid receptor 2 [4] it was 67.2 nM. In addition, the values for the EC50 on Cannabinoid receptor 2 [3] and at Cannabinoid receptor 1 [5] were 82.7 nM and 3120 nM, respectively.

As to `CCCCCC[Si](C)(C)c1cc(O)c(C2CCCCCC2)c(O)c1`, the Emax was determined as 92% at Cannabinoid receptor 2 [1] and 98% at Cannabinoid receptor 1 [6]. The Ki at Cannabinoid receptor 1 [2] was 17.7 nM; on Cannabinoid receptor 2 [4], 6.53 nM. Besides, the EC50 on Cannabinoid receptor 2 [3] came out at 165 nM; on Cannabinoid receptor 1 [5], 129 nM.

For the compound `CCCCCC[Si](C)(C)c1cc(O)c([C@H]2C=C(CO)[C@H]3C[C@@H]2C3(C)C)c(O)c1`, the figures for the Emax on Cannabinoid receptor 2 [1] and on Cannabinoid receptor 1 [6] were 94.1% and 102%, respectively. The Ki was 14.3 nM on Cannabinoid receptor 1 [2] and 11.4 nM at Cannabinoid receptor 2 [4]. Also, the EC50 on Cannabinoid receptor 2 [3] is 63.5 nM; on Cannabinoid receptor 1 [5], 248 nM.

`CCCC[Si](C)(C)c1cc(O)c2c(c1)OC(C)(C)c1ccc(CO)cc1-2`: the Emax came out at 92.8% on Cannabinoid receptor 2 [1] and 94.8% on Cannabinoid receptor 1 [6]. The Ki was determined as 2.79 nM on Cannabinoid receptor 1 [2] and 3.49 nM at Cannabinoid receptor 2 [4]. The EC50 at Cannabinoid receptor 2 [3] is 267 nM; at Cannabinoid receptor 1 [5] it was 214 nM.

`CCCCCC[Si](C)(C)c1cc(O)c2c(c1)OC(C)(C)[C@@H]1CCC(C)=C[C@@H]21`: the Emax at Cannabinoid receptor 2 [1] worked out at 90.2%; on Cannabinoid receptor 1 [6] it was 99.2%. The Ki at Cannabinoid receptor 1 [2] is 0.8 nM; on Cannabinoid receptor 2 [4], 7.41 nM. In addition, the EC50 is 20.2 nM on Cannabinoid receptor 2 [3] and 5.94 nM at Cannabinoid receptor 1 [5].

Consider `CCCCCC[Si](C)(C)c1cc(O)c(C2CCCC2)c(OC)c1`, for which the Emax on Cannabinoid receptor 2 [1] was 89.8%; at Cannabinoid receptor 1 [6], 81.6%. For the same compound, the Ki was determined as 74.8 nM at Cannabinoid receptor 1 [2] and 167 nM on Cannabinoid receptor 2 [4]. Further, the results for the EC50 on Cannabinoid receptor 2 [3] and on Cannabinoid receptor 1 [5] were 236 nM and 709 nM, respectively.

Regarding `CC[Si](C)(C)c1cc(O)c2c(c1)OC(C)(C)[C@@H]1CCC(C)=C[C@@H]21`, the Emax at Cannabinoid receptor 2 [1] was determined as 84.8%. Moreover, the Ki on Cannabinoid receptor 1 [2] stood at 19.3 nM; at Cannabinoid receptor 2 [4] it was 1070 nM. Moreover, at Cannabinoid receptor 2 [3], the EC50 is 352 nM.

Consider `CCCC[Si](C)(C)c1cc(O)c(C2CCCC2)c(O)c1`, for which the Emax on Cannabinoid receptor 2 [1] came out at 102%. Further, the Ki at Cannabinoid receptor 1 [2] worked out at 464 nM; at Cannabinoid receptor 2 [4], 368 nM. Besides, the EC50 at Cannabinoid receptor 2 [3] was 53.8 nM.

Consider `CCCCCC[Si](C)(C)c1cc(O)c(C2CCCCC2)c(OC)c1`, for which the Emax on Cannabinoid receptor 2 [1] came out at 92.7%; on Cannabinoid receptor 1 [6], 73.9%. The results for the Ki on Cannabinoid receptor 1 [2] and on Cannabinoid receptor 2 [4] were 448 nM and 165 nM, respectively. The figures for the EC50 on Cannabinoid receptor 2 [3] and on Cannabinoid receptor 1 [5] were 76.4 nM and 554 nM, respectively.

As for `CCCC[Si](C)(C)c1cc(O)c2c(c1)OC(C)(C)[C@@H]1CC=C(CO)C[C@@H]21`, the results for the Emax on Cannabinoid receptor 2 [1] and on Cannabinoid receptor 1 [6] were 91.2% and 102%, respectively. In addition, the Ki on Cannabinoid receptor 1 [2] was 2.28 nM; at Cannabinoid receptor 2 [4], 0.65 nM. In addition, the half-maximal effective concentration (EC50) stood at 8340 nM on Cannabinoid receptor 2 [3] and 35.2 nM at Cannabinoid receptor 1 [5].

`CCCCCC[Si](C)(C)c1cc(O)c(C2CCCC2)c(O)c1`: the Emax at Cannabinoid receptor 2 [1] stood at 104%. Besides, the figures for the Ki on Cannabinoid receptor 1 [2] and on Cannabinoid receptor 2 [4] were 64.2 nM and 42.3 nM, respectively. On Cannabinoid receptor 2 [3], the EC50 came to 446 nM.

Turning to `CCCC[Si](C)(C)c1cc(O)c2c(c1)OC(C)(C)c1ccc(C)cc1-2`, the Emax on Cannabinoid receptor 2 [1] is 90.4%; on Cannabinoid receptor 1 [6] it was 102%. Also, the figures for the Ki at Cannabinoid receptor 1 [2] and on Cannabinoid receptor 2 [4] were 5.15 nM and 5.01 nM, respectively. The values for the EC50 on Cannabinoid receptor 2 [3] and on Cannabinoid receptor 1 [5] were 268 nM and 400 nM, respectively.

As for `C=C(C)[C@@H]1CCC(C)=C[C@H]1c1c(O)cc(CCCCC)cc1O` [CANNABIDIOL], the half-life in data set [7] is 1.11 min; in data set [8], 4.46 min; in data set [9], 1.44 min. In addition, the CLint scaled in [10] was determined as 4900 mL/min/kg; in data set [11], 1720 mL/min/kg; in data set [12], 390 mL/min/kg.

As to `CCCCCCC(C)(C)c1cc(OC)c([C@H]2C=C(CO)[C@H]3C[C@@H]2C3(C)C)c(OC)c1`, the half-life in data set [7] amounted to 7.84 min; in data set [8], 20.4 min; in data set [9] it was 18.2 min. Besides, at Cannabinoid receptor 2 [1], the Emax is 101%. Besides, the CLint scaled in [10] stood at 137 mL/min/kg; in data set [11] it was 696 mL/min/kg; in [12] it was 85.4 mL/min/kg.

For `CCCC[Si](C)(C)c1cc(O)c(C2CCCCC2)c(OC)c1`, the Emax on Cannabinoid receptor 2 [1] came to 90.4%. The Ki at Cannabinoid receptor 1 [2] is 671 nM; on Cannabinoid receptor 2 [4] it was 396 nM. Also, the EC50 on Cannabinoid receptor 2 [3] was 707 nM.

On to `CCCC[Si](C)(C)c1cc(O)c(C2CCCC2)c(OC)c1`, for which the Emax at Cannabinoid receptor 2 [1] stood at 85.4%. Moreover, the Ki at Cannabinoid receptor 1 [2] came to 600 nM; on Cannabinoid receptor 2 [4] it was 903 nM. Besides, the EC50 at Cannabinoid receptor 2 [3] stood at 1000 nM.

In the case of `CCCCCC[Si](C)(C)c1cc(O)c2c(c1)OC(C)(C)c1ccc(C)cc1-2`, the Emax worked out at 862% on Cannabinoid receptor 2 [1] and 98.4% at Cannabinoid receptor 1 [6]. Besides, the figures for the Ki at Cannabinoid receptor 1 [2] and at Cannabinoid receptor 2 [4] were 0.79 nM and 2.21 nM, respectively. The EC50 stood at 32.6 nM at Cannabinoid receptor 2 [3] and 12.3 nM at Cannabinoid receptor 1 [5].

`CCCCCC[Si](C)(C)c1cc(O)c2c(c1)OC(C)(C)[C@@H]1CC=C(CO)C[C@@H]21`: the Ki at Cannabinoid receptor 1 [2] is 0.43 nM; on Cannabinoid receptor 2 [4], 0.97 nM. The EC50 came to 61.3 nM on Cannabinoid receptor 2 [3] and 6.58 nM on Cannabinoid receptor 1 [5]. The Emax on Cannabinoid receptor 1 [6] stood at 105%.

With `CCCC[Si](C)(C)c1cc(OC)c([C@H]2C=C(CO)[C@H]3C[C@@H]2C3(C)C)c(OC)c1`, the Emax on Cannabinoid receptor 2 [1] is 83.6%. In addition, the Ki at Cannabinoid receptor 1 [2] turned out to be 454 nM; on Cannabinoid receptor 2 [4], 227 nM. At Cannabinoid receptor 2 [3], the EC50 was 899 nM.

For the compound `CCCCCC[Si](C)(C)c1cc(O)c(C2CCCCC2)c(O)c1`, the Emax on Cannabinoid receptor 2 [1] amounted to 95.5%; at Cannabinoid receptor 1 [6], 98.6%. Moreover, the Ki at Cannabinoid receptor 1 [2] was 17.7 nM; on Cannabinoid receptor 2 [4] it was 9.08 nM. Also, the EC50 on Cannabinoid receptor 2 [3] amounted to 55 nM; at Cannabinoid receptor 1 [5] it was 453 nM.

For the compound `CCCC[Si](C)(C)c1cc(O)c(C2CCCCCC2)c(O)c1`, the Emax on Cannabinoid receptor 2 [1] was determined as 93.4%; at Cannabinoid receptor 1 [6] it was 65%. The figures for the Ki on Cannabinoid receptor 1 [2] and at Cannabinoid receptor 2 [4] were 143 nM and 63.5 nM, respectively. For the same compound, the EC50 at Cannabinoid receptor 2 [3] was 84.4 nM; on Cannabinoid receptor 1 [5] it was 836 nM.

Turning to `CCCC[Si](C)(C)c1cc(O)c(C2CCCCC2)c(O)c1`, on Cannabinoid receptor 2 [1], the Emax is 95.2%. Besides, the Ki on Cannabinoid receptor 1 [2] was 241 nM; at Cannabinoid receptor 2 [4], 31.4 nM. The EC50 on Cannabinoid receptor 2 [3] is 25.3 nM.

As to `CCCC[Si](C)(C)c1cc(O)c2c(c1)OC(C)(C)[C@@H]1CCC(C)=C[C@@H]21`, the Emax at Cannabinoid receptor 2 [1] came to 95.4%; on Cannabinoid receptor 1 [6] it was 99.6%. Besides, the Ki was found to be 2.33 nM on Cannabinoid receptor 1 [2] and 1.48 nM at Cannabinoid receptor 2 [4]. Moreover, the EC50 on Cannabinoid receptor 2 [3] is 65.1 nM; on Cannabinoid receptor 1 [5], 13.9 nM.
